{
  "source": "patent EP4768499A1",
  "about": "“MACROCYCLIC PEPTIDE COMPOUND HAVING CELL MEMBRANE PERMEABILITY AND METABOLIC STABILITY, AND LIBRARY CONTAINING SAME” (Chugai Seiyaku Kabushiki Kaisha, priority 2023, dated 2025)",
  "key": {"[1]": {"experiment": "Metabolic stability test: liver microsomal stability assay", "assay_type": "in vitro ADME, mouse", "settings": "for microsomal CLint at 1 µM: male, pH 7.4, presence of NADPH, read-out: Mouse Hepatic Microsome CLh,int NADPH(+)"}, "[2]": {"experiment": "Membrane permeability test using Caco-2 cells with preincubation", "assay_type": "in vitro ADME", "settings": "Caco-2"}, "Caco-2 cells": {"test_system": "Caco-2 cells", "experiment": "Membrane permeability test using Caco-2 cells with preincubation", "assay_type": "in vitro ADME"}, "[3]": {"settings": "mouse liver microsomes 0.5 mg protein/mL, compound 1 µM"}, "[4]": {"settings": "mouse liver microsomes 0.5 mg protein/mL, compound 1 µM, absence of NADPH"}, "[5]": {"settings": "preincubation 20 to 24 hours, Apical FaSSIF/HBSS pH 6.0, Basal HBSS 4% BSA pH 7.4, 180 minutes, read-out: Caco2 Papp"}, "[6]": {"settings": "Caco-2 cells, preincubation 20 to 24 hours, apical FaSSIF/HBSS 1% DMSO pH 6.0, basal HBSS 4% BSA pH 7.4, basal sample at 180 minutes"}},
  "note": "Like-named read-outs stand apart in the source and are kept apart here. Starred links: 1 amine or outer side, 2 acyl side, 3 side chain; linkers in the order of their positions; H or OH if unused. Non-standard residues stand in square brackets, D forms with d. Residues, ends and D or L forms follow the SMILES beside them. *: point of attachment. NMedβ3hAla = C[C@H](CC(=O)[*:2])N(C)[*:1]; NMeF = CN[C@@H](Cc1ccccc1)C(=O)O; NMeGABA = CN(CCCC(=O)[*:2])[*:1]; NMeI = CC[C@H](C)[C@H](NC)C(=O)O; NMeT = CN[C@H](C(=O)O)[C@@H](C)O; hPhe = N[C@@H](CCc1ccccc1)C(=O)O; NMeβAla = CN(CCC(=O)[*:2])[*:1]; NMeL = CN[C@@H](CC(C)C)C(=O)O; NMeV = CN[C@H](C(=O)O)C(C)C; d(β3hA) = C[C@@H](N)CC(=O)O; NMeAbu = CC[C@H](NC)C(=O)O; NMeA = CN[C@@H](C)C(=O)O; βAla = NCCC(=O)O; Sar = CNCC(=O)O; tBu = CC(C)(C)*",
  "data": [
    {"compound": "CC[C@H](C)[C@@H]1NC(=O)[C@H](C)N(C)C(=O)CCCN(C)C(=O)C[C@@H](C)NC(=O)[C@H](C(C)C)N(C)C(=O)[C@H](CCc2ccccc2)NC(=O)[C@H](C)N(C)C(=O)[C@H]([C@@H](C)O)N(C)C(=O)[C@H](CC(C)C)N(C)C(=O)[C@H](C(C)C)NC(=O)[C@H](Cc2ccccc2)N(C)C(=O)[C@H](C)N(C)C(=O)[C@H](C(C)C)N(C)C1=O", "note": "[pd137] (cyclo(I[NMeV][NMeA][NMeF]V[NMeL][NMeT][NMeA][hPhe][NMeV][d(β3hA)][NMeGABA][NMeA]))", "values": [
      {"measurement": "microsomal CLint at 1 µM", "setting": "[1]; [3]", "result": 14.1, "unit": "µL/min/mg"},
      {"measurement": "Mouse Hepatic Microsome CLh,int NADPH(-)", "setting": "[1]; [4]", "result": 7.5, "unit": "µL/min/mg Protein"},
      {"measurement": "Papp A→B", "setting": "[2]; [5]", "result": 0.55, "unit": "×10⁻⁶ cm/s"},
      {"measurement": "Caco2 Papp (10^-6 cm/sec)", "setting": "Caco-2 cells; [6]", "result": "0.55 10^-6 cm/sec"}
    ]},
    {"compound": "CC[C@H](C)[C@@H]1NC(=O)[C@H](CC(C)C)N(C)C(=O)[C@H](C)N(C)C(=O)[C@H](Cc2ccccc2)N(C)C(=O)[C@@H]2CCCN2C(=O)[C@H](CC(C)C)N(C)C(=O)[C@H](CCc2ccccc2)NC(=O)CCN(C)C(=O)C[C@@H](C)NC(=O)[C@H](CC(C)C)N(C)C(=O)[C@H]([C@@H](C)O)NC(=O)CCN(C)C(=O)[C@H](C(C)C)N(C)C1=O", "note": "[pd138] (cyclo(I[NMeV][NMeβAla]T[NMeL][d(β3hA)][NMeβAla][hPhe][NMeL]P[NMeF][NMeA][NMeL]))", "values": [
      {"measurement": "microsomal CLint at 1 µM", "setting": "[1]; [3]", "result": 39.3, "unit": "µL/min/mg"},
      {"measurement": "Mouse Hepatic Microsome CLh,int NADPH(-)", "setting": "[1]; [4]", "result": 11.1, "unit": "µL/min/mg Protein"},
      {"measurement": "Papp A→B", "setting": "[2]; [5]", "result": 0.23, "unit": "×10⁻⁶ cm/s"},
      {"measurement": "Caco2 Papp (10^-6 cm/sec)", "setting": "Caco-2 cells; [6]", "result": "0.23 10^-6 cm/sec"}
    ]},
    {"compound": "CC[C@H](C)[C@@H]1NC(=O)[C@H](CC(C)C)N(C)C(=O)C[C@@H](C)NC(=O)[C@H](C(C)C)N(C)C(=O)[C@H](COC(C)(C)C)NC(=O)[C@H](CC)N(C)C(=O)[C@H](Cc2ccccc2)N(C)C(=O)[C@H](CC(C)C)NC(=O)[C@@H]2CCCN2C(=O)[C@H]([C@@H](C)O)N(C)C(=O)[C@H](CC(C)C)N(C)C(=O)[C@H](CC)N(C)C(=O)[C@H](CC(C)C)N(C)C1=O", "note": "[pd139] (cyclo(I[NMeL][NMeAbu][NMeL][NMeT]PL[NMeF][NMeAbu]S(tBu)[NMeV][d(β3hA)][NMeL]))", "values": [
      {"measurement": "microsomal CLint at 1 µM", "setting": "[1]; [3]", "result": 32.3, "unit": "µL/min/mg"},
      {"measurement": "Mouse Hepatic Microsome CLh,int NADPH(-)", "setting": "[1]; [4]", "result": 28.2, "unit": "µL/min/mg Protein"},
      {"measurement": "Papp A→B", "setting": "[2]; [5]", "result": 1.24, "unit": "×10⁻⁶ cm/s"},
      {"measurement": "Caco2 Papp (10^-6 cm/sec)", "setting": "Caco-2 cells; [6]", "result": "1.24 10^-6 cm/sec"}
    ]},
    {"compound": "CC[C@H]1C(=O)N(C)[C@@H](Cc2ccccc2)C(=O)N(C)[C@@H](CC(C)C)C(=O)N[C@@H](CC(C)C)C(=O)N(C)[C@@H](C(C)C)C(=O)N[C@H](C)CC(=O)N(C)CC(=O)N(C)[C@@H](C(C)C)C(=O)N(C)[C@@H](CC(C)C)C(=O)N(C)[C@@H](C)C(=O)N(C)[C@@H](CC(C)C)C(=O)N[C@@H]([C@@H](C)O)C(=O)N(C)CC(=O)N1C", "note": "[pd140] (cyclo(L[NMeV][d(β3hA)][Sar][NMeV][NMeL][NMeA][NMeL]T[Sar][NMeAbu][NMeF][NMeL]))", "values": [
      {"measurement": "microsomal CLint at 1 µM", "setting": "[1]; [3]", "result": 10.5, "unit": "µL/min/mg"},
      {"measurement": "Mouse Hepatic Microsome CLh,int NADPH(-)", "setting": "[1]; [4]", "result": 10.3, "unit": "µL/min/mg Protein"},
      {"measurement": "Papp A→B", "setting": "[2]; [5]", "result": 0.31, "unit": "×10⁻⁶ cm/s"},
      {"measurement": "Caco2 Papp (10^-6 cm/sec)", "setting": "Caco-2 cells; [6]", "result": "0.31 10^-6 cm/sec"}
    ]},
    {"compound": "CC[C@H](C)[C@@H]1NC(=O)[C@H](CC(C)C)N(C)C(=O)[C@H](CC(C)C)NC(=O)CCN(C)C(=O)C[C@@H](C)N(C)C(=O)[C@H](CC(C)C)N(C)C(=O)CNC(=O)[C@@H]2CCCN2C(=O)[C@H](CC(C)C)N(C)C(=O)CCNC(=O)[C@H]([C@@H](C)CC)N(C)C(=O)[C@H](CCc2ccccc2)NC(=O)[C@H](Cc2ccccc2)N(C)C1=O", "note": "[pd141] (cyclo(G[NMeL][NMedβ3hAla][NMeβAla]L[NMeL]I[NMeF][hPhe][NMeI][βAla][NMeL]P))", "values": [
      {"measurement": "Mouse Hepatic Microsome CLh,int NADPH(-)", "setting": "[1]", "result": 21.1, "unit": "µL/min/mg Protein"},
      {"measurement": "Papp A→B", "setting": "[2]", "result": 0.24, "unit": "×10⁻⁶ cm/s"},
      {"measurement": "Caco2 Papp (10^-6 cm/sec)", "setting": "Caco-2 cells; Caco-2", "result": "0.24 10^-6 cm/sec"}
    ]},
    {"compound": "CC[C@H](C)[C@@H]1NC(=O)[C@H](CC(C)C)N(C)C(=O)[C@H](CC(C)C)NC(=O)CCN(C)C(=O)C[C@@H](C)N(C)C(=O)CN(C)C(=O)[C@H](CC(C)C)N(C)C(=O)[C@@H]2CCCN2C(=O)[C@H](CC(C)C)N(C)C(=O)[C@H](COC(C)(C)C)NC(=O)[C@H]([C@@H](C)CC)N(C)C(=O)[C@H](CCc2ccccc2)NC(=O)[C@H](Cc2ccccc2)N(C)C1=O", "note": "[pd142] (cyclo(I[NMeF][hPhe][NMeI]S(tBu)[NMeL]P[NMeL][Sar][NMedβ3hAla][NMeβAla]L[NMeL]))", "values": [
      {"measurement": "microsomal CLint at 1 µM", "setting": "[1]; [3]", "result": 31.7, "unit": "µL/min/mg"},
      {"measurement": "Mouse Hepatic Microsome CLh,int NADPH(-)", "setting": "[1]; [4]", "result": 33.9, "unit": "µL/min/mg Protein"},
      {"measurement": "Papp A→B", "setting": "[2]; [5]", "result": 0.71, "unit": "×10⁻⁶ cm/s"},
      {"measurement": "Caco2 Papp (10^-6 cm/sec)", "setting": "Caco-2 cells; [6]", "result": "0.71 10^-6 cm/sec"}
    ]},
    {"compound": "CC[C@H](C)[C@@H]1NC(=O)[C@H](CC(C)C)N(C)C(=O)CCCN(C)C(=O)C[C@@H](C)N(C)C(=O)[C@H](CC(C)C)NC(=O)[C@H](CC)N(C)C(=O)[C@H](C(C)C)N(C)C(=O)[C@H](C)N(C)C(=O)[C@H](CC(C)C)N(C)C(=O)[C@H](COC(C)(C)C)NC(=O)[C@H](Cc2ccccc2)N(C)C(=O)[C@H](Cc2ccccc2)N(C)C(=O)CN(C)C1=O", "note": "[pd143] (cyclo(I[Sar][NMeF][NMeF]S(tBu)[NMeL][NMeA][NMeV][NMeAbu]L[NMedβ3hAla][NMeGABA][NMeL]))", "values": [
      {"measurement": "microsomal CLint at 1 µM", "setting": "[1]; [3]", "result": 39.3, "unit": "µL/min/mg"},
      {"measurement": "Mouse Hepatic Microsome CLh,int NADPH(-)", "setting": "[1]; [4]", "result": 21.0, "unit": "µL/min/mg Protein"},
      {"measurement": "Papp A→B", "setting": "[2]; [5]", "result": 4.73, "unit": "×10⁻⁶ cm/s"},
      {"measurement": "Caco2 Papp (10^-6 cm/sec)", "setting": "Caco-2 cells; [6]", "result": "4.73 10^-6 cm/sec"}
    ]}
  ]
}
